Test results reported in the NIST ThermoML archive (doi:10.1016/j.jct.2012.03.029).

Test: mn = molality of the nth substance listed, in mol/kg
Conditions: 101 kPa, Liquid, m1 = 0.01; for speed of sound: Sing-around technique in a fixed-path interferometer; for mass density: Vibrating tube method

OC[C@H]1O[C@@H]2O[C@H]3[C@H](O)[C@@H](O)[C@@H](O[C@H]4[C@H](O)[C@@H](O)[C@@H](O[C@H]5[C@H](O)[C@@H](O)[C@@H](O[C@H]6[C@H](O)[C@@H](O)[C@@H](O[C@H]7[C@H](O)[C@@H](O)[C@@H](O[C@H]8[C@H](O)[C@@H](O)[C@@H](O[C@H]1[C@H](O)[C@H]2O)O[C@@H]8CO)O[C@@H]7CO)O[C@@H]6CO)O[C@@H]5CO)O[C@@H]4CO)O[C@@H]3CO [β-cyclodextrin] + O
Conditions	mass density [kg/m3]	speed of sound [m/s]
293.15 K	1001.93	1484.4
298.15 K	1000.75	1498.5
303.15 K	999.217	1510.9
308.15 K	997.709	1521.5
